Assay results reported in patent US20220118037A1, “METHOD FOR IMPROVING SARCOPENIA BY USING PHELLINUS LINTEUS” (GRAPE KING BIO LTD, priority 2020, published 2022).
Marks after values point to notes of the source that are not given here.

Tested on: C2C12 cell line
Assay: Dexamethasone-induced sarcopenia model in differentiated C2C12 myotubes, diameters of the myotubes (H&E stain, Image-Pro Plus)
Format: cell-based, mouse
Details: 10 μM dexamethasone alone in 0.1% DMSO, 24 hours, C2C12 myotubes (negative control group)
From the text: Mouse skeletal myocytes (i.e., C2C12 cell line) were utilized to establish a sarcopenia model. An artificially synthetic corticosteroid, dexamethasone was utilized to establish the sarcopenia model. Dexamethasone could inhibit the immune system and thus was utilized as an anti-inflammation drug or an allergy drug. […] Thus, dexamethasone was used to induce muscular dystrophy for simulating sarcopenia in this Example. First, a growth medium [Dulbecco's modified minimal essential medium (DMEM) including 10% fetal bovine serum] was utilized to culture the C2C12 cell line under 37° C., 5% CO2, in which the start density of the C2C12 cell line was 1×10^5 to 2×10^5 cells/mL. […] The diameters of the myotubes were measured by using a commercial software (Image-Pro Plus software), and the results of statistical analysis on the diameters of the myotubes were shown in Table 1, in which the statistic method used to analyze the percentage of each items was paired sample t-test, and the symbols “#” and “*” represented significant differences compared to the blank control group and negative control group (p<0.05, n=60), respectively.

## C[C@@H]1C[C@H]2[C@@H]3CCC4=CC(=O)C=C[C@]4(C)[C@@]3(F)[C@@H](O)C[C@]2(C)[C@@]1(O)C(=O)CO [dexamethasone]
  Diameters of the myotubes: 19.98 ± 6.42# μm
